Earlier results, collected in patent US20060073224A1, “Method of preparing Dioscorea tincture and uses thereof” (Omni Research Technology, priority 2004, published 2006).

Settings: purified crystalline powder

## C[C@@H]1CC[C@@]2(OC1)O[C@H]1C[C@H]3[C@@H]4CC=C5C[C@@H](O)CC[C@]5(C)[C@H]4CC[C@]3(C)[C@H]1[C@@H]2C [diosgenin]
  insolubility in alcohol: about 0.2%
